Measured values from patent US9539236B2, “Pharmaceutical composition for preventing or treating cancer” (Medicinal Bioconvergence Research Center, priority 2013, dated 2017).

Tests used:
Assay type in all cases: cell-based
AIMP2-DX2 = molecular target: T1, AIMP2-DX2 (Homo sapiens, UniProt Q13155); assay: Western blotting of AIMP2-DX2 protein level in H460 cells; conditions: FIG. 2
T1 construct: the protein was extracted from the cells using a RIPA buffer containing protease; endogenous in cells; host or cells: H460
T1 sequence (Q13155 1-251 isoform Q13155-2): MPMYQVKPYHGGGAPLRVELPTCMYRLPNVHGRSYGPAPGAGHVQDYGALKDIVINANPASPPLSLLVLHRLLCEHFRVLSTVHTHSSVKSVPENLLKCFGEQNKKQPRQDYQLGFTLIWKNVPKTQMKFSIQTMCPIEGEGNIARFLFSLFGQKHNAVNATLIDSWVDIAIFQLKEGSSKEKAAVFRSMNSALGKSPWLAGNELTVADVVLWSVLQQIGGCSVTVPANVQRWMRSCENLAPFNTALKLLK
Procedure: (§1) The present inventors conducted western blotting and RT-PCR using AIMP2 antibody and AIMP2-DX2 antibody (purchased from Neomics (Korea)) to verify the effect of the compound of chemical formula 1 on AIMP2-DX2 activity.
(§2) A western blotting test was conducted to investigate the effect of C11 on the AIMP2-DX2 protein level.
(§3) H460 cells were treated with the compound, C11, for a predetermined period of time, and the protein was extracted from the cells using a RIPA buffer containing protease. The protein was isolated using 10 to 12% SDS-PAGE, and then immunoblotting was conducted using an ECL system as a specific antibody.

[1] = test system: WI-26 human diploid fibroblast cell line from embryonic lung tissue; assay: MTT assay, cytotoxicity on normal cell line WI-26; conditions: WI-26 cells, compared with a control, FIG. 4
Procedure: In order to evaluate cytotoxicity of C11 on a normal cell line, WI-26, which is a human diploid fibroblast cell line from embryonic lung tissue, was treated with C11, and then cell viability was measured by MTT assay and compared with a control.

AIMP2 = assay: Western blotting of AIMP2 protein expression in H460 cells; conditions: FIG. 2
Procedure: as §1, §2, §3

AIMP2-DX2 mRNA = assay: RT-PCR of AIMP2-DX2 mRNA level in H460 cells treated with C11; conditions: different concentrations of C11, RT-PCR, FIG. 1
Procedure: as §1
H460 cells were treated with C11 with different concentrations, and then total-RNA was isolated according to the protocol of the manufacturer (Qiagen). The cells were collected, and mixed with 350 μl of a lysis buffer, which was then homogenized using a homogenizer or a syringe. After 350 μl of 70% ethanol was added, the lysate was shook above and below several times, and loaded on the column, followed by centrifuge at 13,000 RPM for 15 seconds. The column was washed twice with a washing buffer, and then RNA was eluted with 40 μl of RNase-free DW.
For reverse transcription, 1 μg of the isolated RNA was used as AIMP2-specific primers (SEQ ID NO: 2 and SEQ ID NO: 3) and DX2-specific primers (SEQ ID NO: 4 and SEQ ID NO: 5). After the reverse transcription, the product was diluted with 3-fold DW, and then 1 μl was used for 30 μl of PCR reaction including 0.5 μl dNTP (each 2.5 mM), 0.5 μl of the AIMP2 specific primer set (SEQ ID NO: 2 and SEQ ID NO: 3) and DX2 specific primers (SEQ ID NO: 4 and SEQ ID NO: 5) (each 10 pM), 1.5 μl of DMSO, and 0.1 μl of Taq polymerase (5 U/μl).

[2] = test system: lung cancer cell line NCI-H460; assay: MTT assay, cytotoxicity on lung cancer cells (H460); conditions: NCI-H460, serum free RPMI, 0.04 uM, 0.4 uM, 4 uM and 40 uM, 48 hours, FIG. 3
Procedure: A lung cancer cell line NCI-H460 was cultured in an RPMI medium (HyQ RPMI-1640, Hyclone) containing 10% fetal bovine serum and 1% penicillin/streptomycin for 48 hours, and then transferred to a 96-well plate. After 12 hours, the medium was exchanged with the serum free RPMI medium, and then was treated with the compound of chemical formula 1 with 0.04 uM, 0.4 uM, 4 uM, and 40 uM. After 48 hours, MTT assay was conducted.

Cc1ccc(S(=O)(=O)N[C@@H](CC(C)C)C(=O)N2CCOCCOCCOCC2)cc1 [C11, 1,4,7-Trioxa-10-azacyclododecane, 10-[4-methyl-2-[[(4-methylphenyl)sulfonyl]amino]-1-oxopentyl]]
effect on the AIMP2-DX2 protein level (AIMP2-DX2): reduced the AIMP2-DX2 protein level in a concentration dependent manner
cytotoxicity on normal cells (cell viability, MTT) [1]: cytotoxicity was not observed
effect on the AIMP2 protein expression (AIMP2): no effect
effect on the mRNA level of AIMP2-DX2 (AIMP2-DX2 mRNA): no effect
lung cancer cell line viability (MTT) [2]: killed by the compound, C11, in a concentration dependent manner
